The source made the active and inactive calls. No cut-off for these calls is given here.
Columns and labels:
[1] = NanoBRET assay (AKT3); conditions: Homo sapiens
[2] = target: Tyrosine-protein kinase TXK (Homo sapiens) (UniProt P42681); assay: TXK SelectScreen Kinase panel (LifeTechnologies); conditions: Compound concentration 1.0 uM
[3] = target: Serine/threonine-protein kinase MRCK alpha (Homo sapiens) (UniProt Q5VT25); assay: CDC42 BPA (MRCKA) SelectScreen Kinase panel (LifeTechnologies); conditions: Compound concentration 1.0 uM
[4] = target: Serine/threonine-protein kinase Chk1 (Homo sapiens) (UniProt O14757); assay: CHEK1 (CHK1) SelectScreen Kinase panel (LifeTechnologies); conditions: Compound concentration 1.0 uM
[5] = target: Epidermal growth factor receptor (Homo sapiens) (UniProt P00533); assay: EGFR (ErbB1) SelectScreen Kinase panel (LifeTechnologies); conditions: Compound concentration 1.0 uM
[6] = target: Alpha-1B adrenergic receptor (Homo sapiens, UniProt P35368); assay: GPCRScan assay: inhibition of Alpha1B; set-up: radioligand conc. used [nm] 0.3 – 1.0, parental cells stable HEK
[7] = target: Ribosomal protein S6 kinase alpha-1 (Homo sapiens) (UniProt Q15418); assay: RPS6KA1 (RSK1) SelectScreen Kinase panel (LifeTechnologies); conditions: Compound concentration 1.0 uM
[8] = target: Beta-3 adrenergic receptor (Homo sapiens) (UniProt P13945); conditions: Compound concentration 10.0 uM
[9] = target: Alpha-2A adrenergic receptor (Homo sapiens) (UniProt P08913); conditions: Compound concentration 10.0 uM
Sequence of Alpha-2A adrenergic receptor (Homo sapiens) (P08913 whole entry): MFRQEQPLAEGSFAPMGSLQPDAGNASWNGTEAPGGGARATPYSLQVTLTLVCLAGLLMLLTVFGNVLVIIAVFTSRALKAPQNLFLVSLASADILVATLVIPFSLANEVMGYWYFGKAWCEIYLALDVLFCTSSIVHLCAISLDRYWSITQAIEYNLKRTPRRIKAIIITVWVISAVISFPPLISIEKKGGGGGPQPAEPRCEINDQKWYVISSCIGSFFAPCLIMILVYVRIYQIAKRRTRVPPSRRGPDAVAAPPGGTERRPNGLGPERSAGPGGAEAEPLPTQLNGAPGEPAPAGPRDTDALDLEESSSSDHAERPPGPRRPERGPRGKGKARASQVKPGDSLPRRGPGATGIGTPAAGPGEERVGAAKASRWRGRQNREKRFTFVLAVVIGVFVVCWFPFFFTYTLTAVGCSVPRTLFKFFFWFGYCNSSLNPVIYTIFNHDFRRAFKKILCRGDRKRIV

Sequence of Serine/threonine-protein kinase MRCK alpha (Homo sapiens) (Q5VT25 whole entry): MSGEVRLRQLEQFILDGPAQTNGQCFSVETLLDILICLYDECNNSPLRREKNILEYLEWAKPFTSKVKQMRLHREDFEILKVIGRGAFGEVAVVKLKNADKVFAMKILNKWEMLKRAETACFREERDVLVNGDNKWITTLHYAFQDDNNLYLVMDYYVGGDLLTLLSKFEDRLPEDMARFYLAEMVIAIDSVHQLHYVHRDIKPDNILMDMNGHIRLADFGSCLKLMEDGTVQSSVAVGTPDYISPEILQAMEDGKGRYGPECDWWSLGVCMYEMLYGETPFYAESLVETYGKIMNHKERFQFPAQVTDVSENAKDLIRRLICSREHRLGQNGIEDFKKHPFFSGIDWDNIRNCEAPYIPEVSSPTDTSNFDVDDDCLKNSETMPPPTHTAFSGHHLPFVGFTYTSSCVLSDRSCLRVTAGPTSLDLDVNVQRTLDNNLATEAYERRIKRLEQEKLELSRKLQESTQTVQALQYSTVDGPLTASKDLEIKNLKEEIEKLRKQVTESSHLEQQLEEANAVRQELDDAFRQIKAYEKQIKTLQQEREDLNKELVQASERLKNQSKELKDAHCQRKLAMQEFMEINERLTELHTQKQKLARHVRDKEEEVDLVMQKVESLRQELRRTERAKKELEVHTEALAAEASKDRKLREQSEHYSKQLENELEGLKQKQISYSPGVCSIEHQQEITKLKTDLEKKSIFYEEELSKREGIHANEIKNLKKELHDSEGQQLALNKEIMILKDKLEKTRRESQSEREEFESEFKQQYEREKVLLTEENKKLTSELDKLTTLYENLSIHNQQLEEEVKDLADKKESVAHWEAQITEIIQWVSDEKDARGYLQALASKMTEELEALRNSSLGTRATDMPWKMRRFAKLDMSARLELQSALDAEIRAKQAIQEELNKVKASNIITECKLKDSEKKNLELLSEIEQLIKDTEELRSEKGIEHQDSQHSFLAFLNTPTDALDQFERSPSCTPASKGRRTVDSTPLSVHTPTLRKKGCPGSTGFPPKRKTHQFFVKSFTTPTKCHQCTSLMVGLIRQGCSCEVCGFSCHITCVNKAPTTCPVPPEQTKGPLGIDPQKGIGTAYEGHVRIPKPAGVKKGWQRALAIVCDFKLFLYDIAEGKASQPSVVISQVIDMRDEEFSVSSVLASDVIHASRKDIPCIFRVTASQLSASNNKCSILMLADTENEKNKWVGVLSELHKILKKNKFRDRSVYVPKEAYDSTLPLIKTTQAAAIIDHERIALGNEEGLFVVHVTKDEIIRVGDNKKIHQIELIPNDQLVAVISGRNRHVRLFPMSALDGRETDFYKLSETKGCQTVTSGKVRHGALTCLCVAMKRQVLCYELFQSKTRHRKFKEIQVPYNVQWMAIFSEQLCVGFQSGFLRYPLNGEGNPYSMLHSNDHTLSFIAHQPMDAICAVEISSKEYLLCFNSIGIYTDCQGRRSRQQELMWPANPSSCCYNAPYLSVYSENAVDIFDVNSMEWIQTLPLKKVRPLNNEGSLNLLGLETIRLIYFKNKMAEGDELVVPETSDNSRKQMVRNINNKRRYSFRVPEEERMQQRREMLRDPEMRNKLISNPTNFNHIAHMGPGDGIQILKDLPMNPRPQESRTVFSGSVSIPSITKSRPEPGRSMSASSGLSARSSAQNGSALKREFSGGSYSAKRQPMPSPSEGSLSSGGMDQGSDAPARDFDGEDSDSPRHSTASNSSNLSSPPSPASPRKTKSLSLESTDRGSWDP
Sequence of Tyrosine-protein kinase TXK (Homo sapiens) (P42681 whole entry): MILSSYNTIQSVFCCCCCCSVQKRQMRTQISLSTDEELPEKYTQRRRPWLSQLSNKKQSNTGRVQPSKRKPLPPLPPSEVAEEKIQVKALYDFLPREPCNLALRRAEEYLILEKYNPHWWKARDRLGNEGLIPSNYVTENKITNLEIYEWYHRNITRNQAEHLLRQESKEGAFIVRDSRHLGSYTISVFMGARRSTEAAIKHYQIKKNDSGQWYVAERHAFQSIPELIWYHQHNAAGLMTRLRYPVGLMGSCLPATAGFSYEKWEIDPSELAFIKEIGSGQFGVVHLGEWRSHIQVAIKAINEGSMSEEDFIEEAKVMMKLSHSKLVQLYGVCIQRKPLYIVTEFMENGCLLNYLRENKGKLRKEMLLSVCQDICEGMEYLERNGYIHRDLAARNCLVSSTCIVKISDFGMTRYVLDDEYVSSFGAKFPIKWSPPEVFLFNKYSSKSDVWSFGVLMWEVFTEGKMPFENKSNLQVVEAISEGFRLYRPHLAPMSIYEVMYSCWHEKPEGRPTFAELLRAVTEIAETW
Sequence of Serine/threonine-protein kinase Chk1 (Homo sapiens) (O14757 whole entry): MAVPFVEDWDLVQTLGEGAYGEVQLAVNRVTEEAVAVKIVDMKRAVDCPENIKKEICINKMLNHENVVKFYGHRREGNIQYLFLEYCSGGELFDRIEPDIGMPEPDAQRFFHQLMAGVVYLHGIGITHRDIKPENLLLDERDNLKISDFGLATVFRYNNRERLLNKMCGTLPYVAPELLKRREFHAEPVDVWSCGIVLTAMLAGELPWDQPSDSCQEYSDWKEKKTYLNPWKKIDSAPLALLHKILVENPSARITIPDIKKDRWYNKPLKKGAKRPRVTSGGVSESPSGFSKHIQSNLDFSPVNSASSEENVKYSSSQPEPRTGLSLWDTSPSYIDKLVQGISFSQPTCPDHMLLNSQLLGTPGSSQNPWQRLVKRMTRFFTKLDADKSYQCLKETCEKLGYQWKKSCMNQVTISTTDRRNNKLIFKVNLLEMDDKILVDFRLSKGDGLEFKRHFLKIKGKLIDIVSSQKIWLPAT
Sequence of Beta-3 adrenergic receptor (Homo sapiens) (P13945 whole entry, looked up): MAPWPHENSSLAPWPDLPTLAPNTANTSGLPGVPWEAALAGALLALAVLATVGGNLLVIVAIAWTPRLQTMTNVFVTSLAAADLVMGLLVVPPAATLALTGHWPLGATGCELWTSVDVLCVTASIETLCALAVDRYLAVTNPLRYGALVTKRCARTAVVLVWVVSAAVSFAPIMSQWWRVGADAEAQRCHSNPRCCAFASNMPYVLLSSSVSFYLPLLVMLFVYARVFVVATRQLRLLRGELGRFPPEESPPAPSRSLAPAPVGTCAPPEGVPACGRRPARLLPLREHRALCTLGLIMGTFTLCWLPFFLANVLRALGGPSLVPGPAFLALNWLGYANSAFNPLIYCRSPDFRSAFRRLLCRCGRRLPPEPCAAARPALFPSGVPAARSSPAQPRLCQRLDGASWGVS
Sequence of Ribosomal protein S6 kinase alpha-1 (Homo sapiens) (Q15418 whole entry): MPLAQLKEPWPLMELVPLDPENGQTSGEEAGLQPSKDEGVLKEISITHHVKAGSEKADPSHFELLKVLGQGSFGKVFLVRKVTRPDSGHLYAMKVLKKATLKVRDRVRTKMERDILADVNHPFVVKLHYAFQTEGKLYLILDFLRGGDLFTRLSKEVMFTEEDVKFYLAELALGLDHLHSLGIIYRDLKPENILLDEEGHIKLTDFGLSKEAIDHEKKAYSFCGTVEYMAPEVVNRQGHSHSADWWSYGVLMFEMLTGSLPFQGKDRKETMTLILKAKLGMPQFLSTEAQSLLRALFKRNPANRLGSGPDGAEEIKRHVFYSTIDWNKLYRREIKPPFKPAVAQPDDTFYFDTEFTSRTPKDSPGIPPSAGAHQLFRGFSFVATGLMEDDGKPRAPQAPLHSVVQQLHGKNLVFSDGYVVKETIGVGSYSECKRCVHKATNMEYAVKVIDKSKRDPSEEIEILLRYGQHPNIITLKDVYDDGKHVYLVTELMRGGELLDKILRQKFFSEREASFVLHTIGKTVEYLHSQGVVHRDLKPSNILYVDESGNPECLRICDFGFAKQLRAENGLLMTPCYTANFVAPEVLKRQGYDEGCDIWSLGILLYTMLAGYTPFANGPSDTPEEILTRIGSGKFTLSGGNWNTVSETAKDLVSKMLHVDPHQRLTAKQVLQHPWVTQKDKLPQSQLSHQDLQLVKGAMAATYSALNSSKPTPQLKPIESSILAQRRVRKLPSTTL
Sequence of Alpha-1B adrenergic receptor (P35368 whole entry): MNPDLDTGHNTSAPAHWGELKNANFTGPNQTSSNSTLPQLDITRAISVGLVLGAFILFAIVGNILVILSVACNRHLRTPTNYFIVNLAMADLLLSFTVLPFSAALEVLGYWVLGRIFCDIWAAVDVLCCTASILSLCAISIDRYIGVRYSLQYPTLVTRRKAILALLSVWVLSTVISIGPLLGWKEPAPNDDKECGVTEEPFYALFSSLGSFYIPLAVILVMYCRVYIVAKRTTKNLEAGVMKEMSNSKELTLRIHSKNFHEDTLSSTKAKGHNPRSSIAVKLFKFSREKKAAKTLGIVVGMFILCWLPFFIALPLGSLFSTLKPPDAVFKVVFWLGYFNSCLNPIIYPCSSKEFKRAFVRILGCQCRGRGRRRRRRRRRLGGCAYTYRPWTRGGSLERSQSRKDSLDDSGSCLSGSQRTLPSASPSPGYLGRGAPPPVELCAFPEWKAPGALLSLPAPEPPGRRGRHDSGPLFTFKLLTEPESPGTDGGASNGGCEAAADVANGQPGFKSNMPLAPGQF

C=CC(=O)Nc1ccc2[nH]c(=O)n(C3CCN(Cc4ccc(-c5nc6cc[nH]c(=O)c6cc5-c5ccccc5)cc4)CC3)c2c1 [Borussertib]
EC50 [1]: 0.029 µM (active)
IC50 [1]: 4.3 µM (not active)
inhibition [2]: 8%
inhibition [3]: 2%
inhibition [4]: -4%
inhibition [5]: 2%
Ki [6]: 4.24 µM
inhibition [7]: 12%
inhibition [8]: 9.68%
inhibition [9]: 9.04%

— ChEMBL document CHEMBL4800730 (2021)
